In patent US20210322622A1, “COMPOSITIONS AND METHODS FOR PREPARATION OF COMPOSITE POLYMER FILMS ON NON-CONDUCTING SUBSTRATES, INCLUDING BANDAGES, AND THEIR USE FOR TREATING WOUNDS” (The Johns Hopkins University, priority 2018, published 2021):

Experiments:
S. aureus strain Xen36 = assay: MIC of XEN36 for each antibiotic; type: cell-based, Staphylococcus aureus; conditions: S. aureus XEN36; for MIC: Staphylococcus aureus, read-out: MIC of XEN36
Protocol: S. aureus strain Xen36 (PerkinElmer, Waltham, Mass.) previously derived from the clinical bacteremia isolate ATCC 49525 (Wright) was used in all experiments. (Francis et al., 2000). […] (Francis et al., 2000). Xen36 was prepared for inoculation as previously described. (Niska et al., 2013; Pribaz et al. (2012)).

[1] = In vitro release of antibiotics from PLGA/PCL composite coatings on titanium K-wires (HPLC); type: physicochemical; conditions: for release kinetics after storage: stored coated pins, two-week in vitro release
Protocol: (§1) The release rate of the polymer composite film was measured by HPLC. Drug release studies were conducted using coated pins created with the same loading parameters as those used for later in vivo testing (10% (w/w) drug combinations) electrospun for 60 seconds at injection rates of 0.5 mL/h from each needle. Release rate of antibiotics from the composite polymer coating was characterized by placing coated pins in 200 μL pH 7.4 PBS buffer and incubating at 37° C. in an aluminum film-covered incubator to prevent possible light-induced drug degradation. Release media was changed at fixed time points over a period of two weeks and stored in a −20° C. freezer until analysis. Drug concentrations in release media for each day were determined via reverse-phase HPLC using a C-18 column in an Alliance HPLC system and Waters 2996 PDA detector. The mobile phase was a mixture of acetonitrile and water both mixed with 0.1% TFA acid, which was run at a gradient from (15%/85%) to (40%/60%) for a total runtime of 15 minutes per sample for the elution of Van/Rif and Lin/Rif drug loading groups. Elution of the Dap/Rif loading group was conducted using a mobile phase of (49%/51%) of acetonitrile and water both mixed with 0.1% TFA acid for a total run time of 11 minutes per sample. Concentrations of the drugs were quantified using wavelengths of 343 nm for Rif, 254 nm for Lin, 280 nm for Van and 223 nm for Dap using prepared standard curves for all three drugs. […] Quantification was performed through the derivatization of Gentamicin with ninhydrin at 95° C. for 15 minutes and detection with a Biotek Synergy2 plate reader.
Long-term efficacy of the antimicrobial activity was tested by storing electrospun pins at room temperature for 6 weeks, −20° C. for 6 weeks, and −80° C. for 8 months. Coated pins were protected from light during storage. These pins were then used in the same zone of inhibition assay as described hereinabove.
Drug release studies were conducted using coated pins created with the same loading parameters as detailed above. Release kinetics of antibiotics from the composite coating were characterized by placing coated pins in 200 μL of phosphate buffer saline (PBS, pH 7.4) at 37° C. Release media was changed daily over a period of two weeks and stored at −20° C. until analysis. Drug concentrations in release media were measured on days 1, 2, 3, 5, 7, 10 and 14 using a Waters Alliance 2690 HPLC system (Waters Corporation, Milford, Mass.) equipped with an Accucore RP-MS C18 column (100 mm×2.1 mm; Thermo Fisher Scientific) and a Waters 2996 PDA detector. The elution was carried out with a mobile phase of water and acetonitrile both mixed with 0.1% TFA at a flow rate of 1 mL/min at ambient temperature using a linear gradient elution program of 85% water to […] in 15 minutes. Concentrations of the drugs were quantified using wavelengths for Van (280 nm), Lin (254 nm), Dap (224 nm) and Rif (263 nm).

S. aureus = assay: In vitro zone of inhibition assay of coated K-wires; type: cell-based, Staphylococcus aureus; conditions: 6 weeks room temperature, 6 weeks −20° C., 8 months
From the text: A zone of inhibition assay was used as an additional assay to evaluate the in vitro release of antibiotic(s) from the composite coating. Tryptic soy agar bacterial plates were inoculated with S. aureus bacteria cells to yield a bacterial lawn after overnight culture. After bacterial inoculation and before culturing the plates, two identical titanium K-wires loaded with either 10 w/w % Lin, 10 w/w % Van, or 10 w/w % Dap alone, or in combination with Rif were placed in two separate areas on the plate. After culturing the plates at 37° C. for 24 hours, the antimicrobial activity of the eluded antibiotic(s) into the agar was measured as a zone of inhibition (diameter [mm]) of the bacterial growth around the K-wire.
Long-term efficacy of the antimicrobial activity was tested by storing electrospun pins at room temperature for 6 weeks, −20° C. for 6 weeks, and −80° C. for 8 months. Coated pins were protected from light during storage. These pins were then used in the same zone of inhibition assay as described hereinabove. These antimicrobial results were further confirmed with a two-week in vitro release study to determine release kinetics after storage.
Tryptic soy agar (TSA) bacterial plates were inoculated with S. aureus to yield a bacterial lawn after overnight culture. Before culturing the plates, two titanium K-wires each loaded with the same combination of antibiotics from each set were placed in two separate areas on the plate. After culturing at 37° C. for 24 hours, the zone of inhibition (ZOI) (diameter/mm) of bacterial growth were measured.

[2] = Release kinetics of antibiotics from nanofiber-hydrogel composite sheet (HPLC); type: physicochemical
From the text: A sheet device was designed with the goal of reinforcing the implant soft tissue pocket, as well as serving as a platform for the local delivery of antibiotics. The device was composed of a polycaprolactone (PCL) nanofiber sheet core embedded within a nanofiber-hydrogel composite scaffold. The nanofiber core was created via random-pattern electrospinning of PCL dissolved in an organic solvent. An antibiotic-containing version was created by adding 1% w/w of linezolid and rifampicin to the starting PCL solution. All materials containing rifampicin were protected from light exposure to minimize risk of degradation. Next a composite scaffold was prepared by interfacially bonding 500-nm PCL nanofibers suspended within a hyaluronic acid matrix. The nanofiber sheet was then embedded within the composite scaffold and shaped to form a 1-mm thick sheet device. Release kinetics of each antibiotic were assessed using high-performance liquid chromatography (HPLC).

[3] = In vitro release of Gentamicin from PLGA nanofibers / composite coating (ninhydrin); type: physicochemical
Protocol: The drug groups tested all included Rifampin (Rif), and the second drug was varied among linezolid (Lin), vancomycin (Van), and daptomycin (Dap). Each drug group combination of Rif and a secondary drug was tested with five pin groups as shown in Sets 1-3 (FIG. 1E). To load the antibiotics into the polymer nanofibers or film, Rif and Lin were dissolved in corresponding 10% w/w PLGA or PCL polymer solution prior to electrospinning. Van or Dap was first dissolved in dimethyl sulfoxide (DMSO) to form a 20% (w/w) solution before being added into their respective polymer solutions to form a suspension. This suspension can be electrospun in a relatively uniform fashion. Suspensions using water as a solvent were also produced using the model drug Gentamicin (Gent). Briefly, Gent was dissolved in DI water to form a 30% (w/w) solution before being added to a PLGA solution dissolved in HFIP. The suspension was stabilized through prolonged sonication and vortexing prior to electrospinning.
as §1, with “drugs. As an example, FIG. 3A and FIG. 3B show the in vitro release profiles of Lin and Rif from the composite coating on titanium K-wire implants.” for “drugs.”

Row | Compound | MIC (S. aureus strain Xen36) [µg/mL] | release kinetics after storage [1] | antimicrobial activity (zone of inhibition) after storage versus freshly prepared coatings (S. aureus) | time Rif remains above the MIC, tuned by PCL molecular weight or PCL layer thickness ([1]; in vitro release from composite coating) [days] | complete release from the nanofiber-hydrogel composite sheet [2] [days] | release from the nanofiber-hydrogel composite sheet within the first 24 hours [2] [%] | MIC of XEN36 (S. aureus strain Xen36) | Gentamicin release profile ([3]; 50:50 PLGA) | release of Gentamicin above the MIC, controlled by polymer choice ([3]; 50:50 versus 75:25 PLGA) [days] | Gentamicin release profile ([3]; 75:25 PLGA) | Day 1 release of Gentamicin ([3]; PLGA nanofibers alone) | Day 1 release of Gentamicin ([3]; PLGA nanofibers embedded in PCL film layer) | time Gentamicin concentration at MIC could be sustained ([3]; in vitro release from PLGA nanofibers)
1 | CCCCCCCCCC(=O)N[C@@H](Cc1c[nH]c2ccccc12)C(=O)N[C@H](CC(N)=O)C(=O)N[C@@H](CC(=O)O)C(=O)N[C@@H]1C(=O)NCC(=O)N[C@@H](CCCN)C(=O)N[C@@H](CC(=O)O)C(=O)N[C@H](C)C(=O)N[C@@H](CC(=O)O)C(=O)NCC(=O)N[C@H](CO)C(=O)N[C@@H]([C@H](C)CC(=O)O)C(=O)N[C@@H](CC(=O)c2ccccc2N)C(=O)O[C@@H]1C [Dap, daptomycin] | 0.25 | no difference in the release kinetics | no significant loss of antimicrobial activity | – | – | – | – | – | – | – | – | – | –
2 | CO[C@H]1/C=C/O[C@@]2(C)Oc3c(C)c(O)c4c(O)c(c(/C=N/N5CCN(C)CC5)c(O)c4c3C2=O)NC(=O)/C(C)=C\C=C\[C@H](C)[C@H](O)[C@@H](C)[C@@H](O)[C@@H](C)[C@H](OC(C)=O)[C@@H]1C [Rif, Rifampin] | 0.5 | reduced after storage at room temperature for six weeks, but not when the pins were stored at −20 °C | no significant loss of antimicrobial activity | 2 to 5 | ≤ 14 | 70 | – | – | – | – | – | – | –
3 | CC(=O)NC[C@H]1CN(c2ccc(N3CCOCC3)c(F)c2)C(=O)O1 [Lin, linezolid] | 2 | no difference in the release kinetics | no significant loss of antimicrobial activity | – | ≤ 3 | 70 | – | – | – | – | – | – | –
4 | Gentamicin | – | – | – | – | – | – | roughly 10 μg/mL | sustained release | 2 to 14 | only a burst release | 80 % of total loading | less than 45 % of total loading | up to 14 days
